Experimental data taken from patent US9617244B2, “Antibacterial quinoline derivatives” (JANSSEN PHARMACEUTICA NV, priority 2012, dated 2017).
≈ marks a conversion by molar mass, not a printed value.

Tests used:
[1] = system: Staphylococcus aureus (ATCC29213); assay: In-vitro anti-bacterial activity, microtitre plate assay, IC90 determination (non-mycobacterial strains); format: cell-based; conditions: 90% inhibitory concentration for bacterial growth, resazurin fluorescence; for IC90 STA B29213: 24 hours; for IC90: Staphylococcus aureus, ATCC29213, 24 h, read-out: IC90 STA B29213
Protocol: D.2. In-Vitro Method for Testing Compounds for Anti-Bacterial Activity Against Various Non-Mycobacterial Strains
Preparation of Bacterial Suspensions for Susceptibility Testing:
The bacteria used in this study were grown overnight in flasks containing 100 ml Mueller-Hinton Broth (Becton Dickinson—cat. no. 275730) in sterile de-ionized water, with shaking, at 37° C. Stocks (0.5 ml/tube) were stored at −70° C. until use. Bacteria titrations were performed in microtiter plates to detect the TCID50, in which TCID50 represents the dilution that gives rise to bacterial growth in 50% of inoculated cultures. In general, an inoculum level of approximately 100 TCID50 was used for susceptibility testing.
Anti Bacterial Susceptibility Testing: IC90 Determination
Flat-bottom, sterile 96-well plastic microtiter plates were filled with 180 μl of sterile deionized water, supplemented with 0.25% BSA. Subsequently, stock solutions (7.8× final test concentration) of compounds were added in 45 μl volumes in column 2 Serial five-fold dilutions (45 μl in 180 μl) were made directly in the microtiter plates from column 2 to reach column 11. Untreated control samples with (column 1) and without (column 12) inoculum were included in each microtiter plate. Depending on the bacteria type, approximately 10 to 60 CFU per well of bacteria inoculum (100 TCID50), in a volume of 100 μl in 2.8× Mueller-Hinton broth medium, was added to the rows A to H, except column 12. The same volume of broth medium without inoculum was added to column 12 in row A to H. The cultures were incubated at 37° C. for 24 hours under a normal atmosphere (incubator with open air valve and continuous ventilation). At the end of incubation, one day after inoculation, the bacterial growth was quantitated fluorometrically. Therefore resazurin (0.6 mg/ml) was added in a volume of 20 μl to all wells 3 hours after inoculation, and the plates were re-incubated overnight. A change in colour from blue to pink indicated the growth of bacteria. The fluorescence was read in a computer-controlled fluorometer (Cytofluor Biosearch) at an excitation wavelength of 530 nm and an emission wavelength of 590 nm. The % growth inhibition achieved by the compounds was calculated according to standard methods. The IC90 (expressed in μg/ml) was defined as the 90% inhibitory concentration for bacterial growth.

[2] = system: Mycobacterium smegmatis (ATCC607); assay: In-vitro anti-bacterial activity against strain M. Smegmatis ATCC607; format: cell-based; conditions: 90% inhibitory concentration for bacterial growth, Alamar Blue fluorescence; for IC90 MSM 607: 48 hours; for IC90: Mycolicibacterium smegmatis, ATCC607, 48 h, read-out: IC90 MSM 607
Protocol: D.1. In-Vitro Method for Testing Compounds for Anti-Bacterial Activity Against Strain M. Smegmatis ATCC607
Flat-bottom, sterile 96-well plastic microtiter plates were filled with 180 μl of sterile deionized water, supplemented with 0.25% BSA. Subsequently, stock solutions (7.8× final test concentration) of compounds were added in 45 μl volumes to a series of duplicate wells in column 2 so as to allow evaluation of their effects on bacterial growth. Serial five-fold dilutions (45 μl in 180 μl) were made directly in the microtiter plates from column 2 to 11 using a customised robot system (Zymark Corp., Hopkinton, Mass.). Pipette tips were changed after every 3 dilutions to minimize pipetting errors with high hydrophobic compounds. Untreated control samples with (column 1) and without (column 12) inoculum were included in each microtiter plate. Approximately 250 CFU per well of bacteria inoculum, in a volume of 100 μl in 2.8× Mueller-Hinton broth medium, was added to the rows A to H, except column 12. The same volume of broth medium without inoculum was added to column 12 in row A to H. The cultures were incubated at 37° C. for 48 hours in a humidified 5% CO2 atmosphere (incubator with open air valve and continuous ventilation). At the end of incubation, two days after inoculation, the bacterial growth was quantitated fluorometrically. Therefore Alamar Blue (10×) was added to all wells in a volume of 20 μl and plates were incubated for another 2 hours at […]
The fluorescence was read in a computer-controlled fluorometer (Cytofluor, Biosearch) at an excitation wavelength of 530 nm and an emission wavelength of 590 nm (gain 30). The percentage growth inhibition achieved by the compounds was calculated according to standard methods and expressed as IC90 (μg/ml) which defines the 90% inhibitory concentration for bacterial growth.

| IC90 STA B29213 [1] [µg/mL] | IC90 MSM 607 [2] [µg/mL] | IC90 [2] [µg/mL] | IC90 [1] [µg/mL] | Compound |
| --- | --- | --- | --- | --- |
| 4.72 (≈ 9.57 µM) | 3.34 (≈ 6.77 µM) | – | – | O=c1[nH]c2ccc(Cl)cc2cc1C(c1ccc(Cl)cc1)C1(O)CCNC(Cc2ccccc2)C1 (stereo not drawn) [Compound 241] |
| 4.56 (≈ 8.48 µM) | – | 3.62 (≈ 6.73 µM) | – | O=c1[nH]c2ccc(Br)cc2cc1C(c1ccc(Cl)cc1)C1(O)CCNC(Cc2ccccc2)C1 (stereo not drawn) [Compound 128] |
| – | – | > 14.9 | > 14.9 | Cc1cc(F)ccc1C1CC(O)(C(c2ccc(S(C)(=O)=O)cc2)c2cc3cc(Cl)ccc3[nH]c2=O)CCN1 (stereo not drawn) [Compound 377] |
| 7.41 (≈ 13.6 µM) | 5.24 (≈ 9.64 µM) | – | – | COc1nc2ccc(Cl)cc2cc1C(c1ccc(Cl)cc1)C1(O)CCNC(c2ccc3ccccc3c2)C1 (stereo not drawn) [Compound 432] |
| 2.86 (≈ 5.02 µM) | – | 3.2 (≈ 5.62 µM) | – | COc1nc2ccc(Br)cc2cc1C(c1cccc(Cl)c1)C1(O)CCNC(c2ccc(F)cc2C)C1 (stereo not drawn) [Compound 173] |
| 3.46 (≈ 6.77 µM) | 8.68 (≈ 17 µM) | – | – | O=c1[nH]c2ccc(Cl)cc2cc1C(c1ccc(Cl)cc1)C1(O)CCNC(Cc2ccc(F)cc2)C1 (stereo not drawn) [Compound 344] |
| 3.39 (≈ 6.24 µM) | 3.39 (≈ 6.24 µM) | – | – | COc1nc2ccc(Cl)cc2cc1C(c1ccc(Cl)cc1)C1(O)CCNC(c2ccc3ccccc3c2)C1 (stereo not drawn) [Compound 430] |
| 18.76 (≈ 32 µM) | 18.76 (≈ 32 µM) | – | – | COc1nc2ccc(S(C)(=O)=O)cc2cc1C(c1ccc(Cl)cc1)C1(O)CCNC(Cc2ccc(F)cc2F)C1 (stereo not drawn) [Compound 305] |
| 1.67 (≈ 3.4 µM) | 1.18 (≈ 2.4 µM) | – | – | CSc1ccc2[nH]c(=O)c(C(c3ccc(Cl)cc3)C3(O)CCNC(c4ccccc4)C3)cc2c1 (stereo not drawn) [Compound 230] |
| 3.66 (≈ 6.73 µM) | 3.66 (≈ 6.73 µM) | – | – | O=c1[nH]c2ccc(Br)cc2cc1C(c1ccc(Cl)cc1)C1(O)CCNC(CC2CCCCC2)C1 (stereo not drawn) [Compound 258] |
| 7.00 (≈ 13.4 µM) | 7.00 (≈ 13.4 µM) | – | – | Cc1cc(F)ccc1C1CC(O)(C(c2ccccc2)c2cc3cc(Br)ccc3[nH]c2=O)CCN1 (stereo not drawn) [Compound 279] |
| 4.17 (≈ 8.49 µM) | 6.60 (≈ 13.4 µM) | – | – | CSc1ccc2[nH]c(=O)c(C(c3ccc(Cl)cc3)C3(O)CCNC(c4ccccc4)C3)cc2c1 (stereo not drawn) [Compound 235] |
| 3.45 (≈ 6.31 µM) | 2.74 (≈ 5.01 µM) | – | – | COc1nc2ccc(SC(C)C)cc2cc1C(c1ccc(Cl)cc1)C1(O)CCNC(Cc2ccccc2)C1 (stereo not drawn) [Compound 383] |
| – | 11.06 (≈ 21.2 µM) | – | > 13.9 | Cc1cc(F)ccc1C1CC(O)(C(c2ccccc2)c2cc3cc(S(C)(=O)=O)ccc3[nH]c2=O)CCN1 (stereo not drawn) [Compound 237] |
| – | – | 7.29 (≈ 15.8 µM) | 11.6 (≈ 25.1 µM) | COc1nc2ccccc2cc1C(c1ccc(Cl)cc1)C1(O)CCNC(c2cccnc2)C1 (stereo not drawn) [Compound 27] |
| 6.99 (≈ 12.6 µM) | 5.55 (≈ 10 µM) | – | – | CS(=O)(=O)c1ccc2[nH]c(=O)c(C(c3ccc(Cl)cc3)C3(O)CCNC(Cc4ccc(F)cc4)C3)cc2c1 (stereo not drawn) [Compound 59] |
| 8.69 (≈ 17.8 µM) | 6.15 (≈ 12.6 µM) | – | – | CSc1ccc2[nH]c(=O)c(C(c3ccccc3)C3(O)CCNC(c4ccc(F)cc4C)C3)cc2c1 (stereo not drawn) [Compound 179] |
| 1.83 (≈ 3.36 µM) | 9.18 (≈ 16.9 µM) | – | – | O=c1[nH]c2ccc(Br)cc2cc1C(c1ccc(Cl)cc1)C1(O)CCNC(CC2CCCCC2)C1 (stereo not drawn) [Compound 6] |
| – | – | 4.35 (≈ 8.51 µM) | 6.9 (≈ 13.5 µM) | O=c1[nH]c2ccc(Cl)cc2cc1C(c1ccc(Cl)cc1)C1(O)CCNC(Cc2ccc(F)cc2)C1 (stereo not drawn) [Compound 343] |
| 3.48 (≈ 6.31 µM) | 1.56 (≈ 2.83 µM) | – | – | COc1nc2ccc(Br)cc2cc1C(c1ccc(Cl)cc1)C1(O)CCNC(Cc2ccccc2)C1 (stereo not drawn) [Compound 32] |

| IC90 STA B29213 [1] [µg/mL] | IC90 MSM 607 [2] [µg/mL] | IC90 [2] [µg/mL] | IC90 [1] [µg/mL] | Compound |
| --- | --- | --- | --- | --- |
| 4.96 (≈ 9.87 µM) | 3.94 (≈ 7.84 µM) | – | – | COc1nc2ccc(SC)cc2cc1C(c1ccccc1)C1(O)CCNC(c2ccc(F)cc2C)C1 (stereo not drawn) [Compound 169] |
| 3.48 (≈ 6.67 µM) | 3.48 (≈ 6.67 µM) | – | – | Cc1cc(F)ccc1C1CC(O)(C(c2ccccc2)c2cc3cc(Br)ccc3[nH]c2=O)CCN1 (stereo not drawn) [Compound 43] |
| 3.49 (≈ 6.31 µM) | 2.77 (≈ 5.01 µM) | – | – | COc1nc2ccc(Br)cc2cc1C(c1ccc(Cl)cc1)C1(O)CCNC(Cc2ccccn2)C1 (stereo not drawn) [Compound 379] |
| 7.42 (≈ 13.4 µM) | 5.89 (≈ 10.6 µM) | – | – | Cc1cc(F)ccc1C1CC(O)(C(c2cccc(Cl)c2)c2cc3cc(S(C)(=O)=O)ccc3[nH]c2=O)CCN1 (stereo not drawn) [Compound 270] |
| – | – | > 12.5 | > 12.5 | COc1nc2ccccc2cc1C(c1ccccc1)C1(O)CCNC(Cc2ccccc2)C1 (stereo not drawn) [Compound 399] |
| 7.16 (≈ 12.6 µM) | 7.16 (≈ 12.6 µM) | – | – | COc1nc2ccc(S(C)(=O)=O)cc2cc1C(c1ccc(Cl)cc1)C1(O)CCNCC1Cc1cccc(F)c1 (stereo not drawn) [Compound 293] |
| 2.35 (≈ 4.23 µM) | 1.18 (≈ 2.12 µM) | – | – | Cc1cc(F)ccc1C1CC(O)(C(c2cccc(Cl)c2)c2cc3cc(Br)ccc3[nH]c2=O)CCN1 (stereo not drawn) [Compound 138] |
| 5.26 (≈ 9.23 µM) | 2.35 (≈ 4.12 µM) | – | – | COc1nc2ccc(Br)cc2cc1C(c1cccc(Cl)c1)C1(O)CCNC(c2ccc(F)cc2C)C1 (stereo not drawn) [Compound 151] |
| 1.75 (≈ 3.36 µM) | 1.10 (≈ 2.11 µM) | – | – | Cc1cc(F)ccc1C1CC(O)(C(c2ccccc2)c2cc3cc(Br)ccc3[nH]c2=O)CCN1 (stereo not drawn) [Compound 280] |
| – | – | 4.16 (≈ 7.95 µM) | 8.3 (≈ 15.9 µM) | COc1nc2ccc(Cl)cc2cc1C(c1ccc(Cl)cc1)C1(O)CCNC(CNc2cccnc2)C1 (stereo not drawn) [Compound 469] |
| 1.70 (≈ 3.17 µM) | 1.07 (≈ 1.99 µM) | – | – | COc1nc2ccc(SC)cc2cc1C(c1ccc(Cl)cc1)C1(O)CCNC(c2ccc(F)cc2C)C1 (stereo not drawn) [Compound 276] |
| 3.49 (≈ 6.31 µM) | 1.75 (≈ 3.17 µM) | – | – | COc1nc2ccc(Br)cc2cc1C(c1ccc(Cl)cc1)C1(O)CCNC(Cc2ccccn2)C1 (stereo not drawn) [Compound 381] |
| 2.02 (≈ 3.98 µM) | 1.43 (≈ 2.82 µM) | – | – | COc1nc2ccc(Cl)cc2cc1C(c1ccc(Cl)cc1)C1(O)CCNC(Cc2ccccc2)C1 (stereo not drawn) [Compound 95] |
| 2.50 (≈ 4.78 µM) | 3.53 (≈ 6.75 µM) | – | – | CSc1ccc2[nH]c(=O)c(C(c3ccc(Cl)cc3)C3(O)CCNC(Cc4ccc(F)cc4)C3)cc2c1 (stereo not drawn) [Compound 333] |
| 11.36 (≈ 20 µM) | 14.30 (≈ 25.1 µM) | – | – | COc1nc2ccc(S(C)(=O)=O)cc2cc1C(c1ccc(Cl)cc1)C1(O)CCNCC1Cc1cccc(F)c1 (stereo not drawn) [Compound 294] |
| 12.82 (≈ 27.1 µM) | 6.42 (≈ 13.6 µM) | – | – | C=CC1CC(O)(C(c2ccc(Cl)cc2)c2cc3cc(Br)ccc3[nH]c2=O)CCN1 (stereo not drawn) [Compound 361] |
| 3.50 (≈ 6.31 µM) | 3.50 (≈ 6.31 µM) | – | – | CS(=O)(=O)c1ccc2[nH]c(=O)c(C(c3ccc(Cl)cc3)C3(O)CCNC(Cc4ccc(F)cc4)C3)cc2c1 (stereo not drawn) [Compound 57] |
| 1.49 (≈ 2.68 µM) | 0.94 (≈ 1.69 µM) | – | – | Cc1cc(F)ccc1C1CC(O)(C(c2ccc(Cl)cc2)c2cc3cc(Br)ccc3[nH]c2=O)CCN1 (stereo not drawn) [Compound 7] |
| 3.62 (≈ 6.69 µM) | 3.62 (≈ 6.69 µM) | – | – | CSc1ccc2[nH]c(=O)c(C(c3cccc(Cl)c3)C3(O)CCNC(Cc4ccc(F)cc4F)C3)cc2c1 (stereo not drawn) [Compound 312] |
